From ChEMBL document CHEMBL1134167, “Conformational study of a highly specific CXCR4 inhibitor, T140, disclosing the close proximity of its intrinsic pharmacophores associated with strong anti-HIV activity” (Bioorg Med Chem Lett, 2001) come the findings set out here.

For this experiment, the system named is Human immunodeficiency virus 1. As to the kind of experiment: Effective concentration for HIV-1 inhibition. In kind it is functional, organism-based.

Broadly, the EC50 is the concentration needed to bring the measured effect to its halfway point. A low value points to greater potency.

Where a SMILES comes first, the peptide text is derived from it. Bridges are numbered along the chain shown (N, C = ends). [ ]: non-standard residue; d: D form. Gly(2-naphthyl) = N[C@H](C(=O)O)c1ccc2ccccc2c1; Cit = NC(=O)NCCC[C@H](N)C(=O)O

Compound `NCCCC[C@@H]1NC(=O)[C@H](CCCN=C(N)N)NC(=O)[C@H](Cc2ccc(O)cc2)NC(=O)[C@@H](NC(=O)[C@@H](NC(=O)[C@H](CCCN=C(N)N)NC(=O)[C@@H](N)CCCN=C(N)N)c2ccc3ccccc3c2)CSSC[C@@H](C(=O)N[C@@H](CCCN=C(N)N)C(=O)O)NC(=O)[C@H](CCCNC(N)=O)NC(=O)[C@H](CCCN=C(N)N)NC(=O)[C@H](Cc2ccc(O)cc2)NC(=O)[C@@H]2CCCN2C(=O)[C@@H](CCCCN)NC1=O` (H-RR[Gly(2-naphthyl)]CYRK[dK]PYR[Cit]CR-OH; disulfide 4-13) returned a concentration for a half-maximal effect (EC50) of 3.5 nM.
